This is an account of results in PubChem BioAssay (NCI).

Where “and” joins values, the source holds several entries; their conditions need not be identical. Equal values may be shown once.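 Step 1: Grow cells in 96-well plates. Step 2: Expose to compound for 48 hours at 5 concentrations. Step 3: Interpolate endpoints linearly; if unreached, use highest concentration. Abbreviation: GI50, concentration required for 50% inhibition of growth. At the TGI there is no net growth.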 Where only a bound is given, the exact number is not on record here.

Test in all cases: inhibition of tumour cell growth, NCI panel, 48 h
Experiment [1] has as its system TK-10 renal.
Experiment [2] relates to HS 578T breast.
The subject of experiment [3] is SK-OV-3 ovarian.
Experiment [4] concerns RPMI-8226 leukemia.
In experiment [5] the test system is 786-0 renal.
In experiment [6] the test system is A549 NSCLC.
In experiment [7] the test system is CAKI-1 renal.
For experiment [8], the system named is MDA-MB-231 breast.

In the case of `CCN(CC)CCOc1ccc(/C=C2\CC3C4CC=C5C[C@@H](OC(C)=O)CC[C@]5(C)C4CC[C@]3(C)C2=O)cc1OC` (stereo partly specified), the GI50 was 2530 nM in experiment [1]; 7770 nM in experiment [2]; 29.5 µM in experiment [3]; 1710 nM in experiment [4]; 2030 nM in experiment [5]; 17.7 µM in experiment [6]. Further, the GI50 is 429 nM in experiment [7] and 21100 nM in experiment [8]. Moreover, the TGI in experiment [1] was 6.1 µM; in experiment [2] it was 25.7 µM; in experiment [3], 95.1 µM; in experiment [4], 4.63 µM; in experiment [5] it was 4.29 µM; in experiment [6], 44.9 µM. For the same compound, the values for the TGI in experiment [7] and in experiment [8] were 2.52 µM and over 100 µM, respectively.
In the case of `CN(C)CCCN1c2ccccc2Sc2ccc(Cl)cc21`, the GI50 in experiment [1] is 9640 nM and 6760 nM; in experiment [2] it was 4320 nM and 3770 nM; in experiment [3] it was 2.76 µM and 3.22 µM; in experiment [4], 13600 nM; in experiment [5], 3810 nM and 12000 nM; in experiment [6] it was 3.31 µM and 3.37 µM. The GI50 in experiment [7] was 6780 nM and 6910 nM; in experiment [8] it was 1990 nM and 2100 nM. Also, the TGI in experiment [1] was 22.3 µM and 20.3 µM; in experiment [2] it was 24.4 µM and 21 µM; in experiment [3] it was 7.62 µM and 9.3 µM; in experiment [4], 32.6 µM; in experiment [5] it was 14.2 µM and 26.6 µM; in experiment [6] it was 11.3 µM and 14.1 µM. Besides, the TGI in experiment [7] is 20.7 µM and 20.8 µM; in experiment [8], 5.35 µM and 6.87 µM.
With `Cc1n(Cc2ccc3ccccc3c2)c(Cl)c(Cl)[n+]1Cc1ccc2ccccc2c1`, the GI50 in experiment [1] was 1790 nM; in experiment [2], 1540 nM; in experiment [3], 2.52 µM; in experiment [4] it was 1050 nM; in experiment [5], 1710 nM; in experiment [6], 5.07 µM. For the same compound, the GI50 in experiment [7] is 1850 nM; in experiment [8], 1590 nM. Also, the TGI is 3.53 µM in experiment [1]; 3.79 µM in experiment [2]; 9.62 µM in experiment [3]; 3.12 µM in experiment [4]; 3.14 µM in experiment [5]; 22 µM in experiment [6]. Besides, the TGI in experiment [7] worked out at 4.67 µM; in experiment [8], 3.09 µM.
In the case of `CC1(C)C2CCC13C(=O)C1OC3(C2)C2C(=O)c3c(O)cccc3C(=O)C12` (stereo unspecified), the GI50 in experiment [1] was 979 nM; in experiment [2] it was 988 nM; in experiment [3], 10.9 µM; in experiment [4], 177 nM; in experiment [5], 319 nM; in experiment [6], 1.24 µM. Further, the GI50 is 1400 nM in experiment [7] and 472 nM in experiment [8]. In addition, the TGI in experiment [1] worked out at 2.83 µM; in experiment [2], 2.86 µM; in experiment [3], 23.9 µM; in experiment [4], 0.441 µM; in experiment [5] it was 0.829 µM; in experiment [6] it was 4.57 µM. In addition, the TGI in experiment [7] was 2.95 µM; in experiment [8], 1.33 µM.
Take `O=C(O)Cn1ccnc1[N+](=O)[O-]`: the TGI in experiment [1], in experiment [2], in experiment [3], in experiment [4], in experiment [5] and in experiment [6] was over 100 µM throughout. In addition, the TGI in experiment [7] and in experiment [8] was over 100 µM throughout.
`CN(C)C(=O)SC1=C(c2c(Cl)cccc2Cl)C(=O)c2ccccc21`: the GI50 was 3500 nM in experiment [1]; 20000 nM in experiment [2]; 18.6 µM in experiment [3]; 2200 nM in experiment [4]; 10300 nM in experiment [5]; 24.8 µM in experiment [6]. The figures for the GI50 in experiment [7] and in experiment [8] were 2150 nM and 5600 nM, respectively. For the same compound, the TGI in experiment [1] was 9.64 µM; in experiment [2] it was over 75.5 µM; in experiment [3], 36.5 µM; in experiment [4] it was 5.84 µM; in experiment [5] it was 22.4 µM; in experiment [6], over 55.7 µM. Also, the TGI in experiment [7] worked out at 5.72 µM; in experiment [8] it was 13.7 µM.
Turning to `Nc1ncnc2c1c(-c1ccc(Oc3ccccc3)cc1)nn2C[C@@H]1SSC[C@@H]1O`, the GI50 in experiment [1] was 705 nM; in experiment [2], 2020 nM; in experiment [3] it was 0.498 µM; in experiment [4], 2860 nM; in experiment [5] it was 2750 nM; in experiment [6] it was 0.479 µM. Also, the GI50 in experiment [7] is 1360 nM; in experiment [8] it was 1140 nM. Also, the TGI in experiment [1] amounted to 2.75 µM; in experiment [2], 11.6 µM; in experiment [3], 3.71 µM; in experiment [4] it was 14.6 µM; in experiment [5], 11.1 µM; in experiment [6], 2.57 µM. In addition, the values for the TGI in experiment [7] and in experiment [8] were 5.01 µM and 4.13 µM, respectively.
`NC(=O)c1cc(I)ccc1NC(=O)COc1ccccc1`: the GI50 was 5380 nM in experiment [1]; 462 nM in experiment [2]; 3.21 µM in experiment [3]; 679 nM in experiment [4]; 957 nM in experiment [5]; 0.63 µM in experiment [6]. The figures for the GI50 in experiment [7] and in experiment [8] were 547 nM and 1320 nM, respectively. Also, the TGI is 50.9 µM in experiment [1]; 36.1 µM in experiment [2]; over 69.1 µM in experiment [3]; over 100 µM in experiment [4]; 18.8 µM in experiment [5]; over 100 µM in experiment [6]. The results for the TGI in experiment [7] and in experiment [8] were over 100 µM and 26.6 µM, respectively.
Consider `CN(C)C/C=C/C(=O)Nc1ccc(C(=O)N2CCC[C@@H](Nc3ncc(Cl)c(-c4c[nH]c5ccccc45)n3)C2)cc1`, for which the GI50 in experiment [1] was 2310 nM; in experiment [2] it was 214 nM; in experiment [3] it was 0.395 µM; in experiment [4], 422 nM; in experiment [5], 1960 nM; in experiment [6], 0.581 µM. Besides, the GI50 in experiment [7] is 1650 nM; in experiment [8], 138 nM. Also, the TGI in experiment [1] came to 12.9 µM; in experiment [2], 1.45 µM; in experiment [3], 12.4 µM; in experiment [4], 3.83 µM; in experiment [5] it was 8.38 µM; in experiment [6], 11 µM. Also, the results for the TGI in experiment [7] and in experiment [8] were 12.1 µM and 6.71 µM, respectively.
